Experiments:
DGAT [1] = assay: Assay for inhibitory effect on DGAT in cell (intracellular triglyceride production from [14C]acetate in HepG2 cells); type: cell-based, human; details: for Production Yield of Triglyceride (%): final level 10 μM, DMSO control given as 100
Protocol: The effect of the benzazole derivatives of Chemical Formula 1 in accordance with the present invention on DGAT was examined with HepG2 cells, hepatic cells derived from the human liver, as follows.
HepG2 cells, purchased from ATCC, were cultured in Eagle's minimum essential medium (MEM), 2 mM L-glutamine, with Earle's balanced salt solution (BSS) adjusted to contain, 1.5 g/L sodium bicarbonate, 0.1 mM non-essential amino acids and 1 mM sodium pyruvate, supplemented with 10% fetal bovine serum (FBS) and 1% antibiotics (100 U/ml penicillin and 100 µg/ml streptomycin) at 37° C. in a 5% CO2 incubator.
Intracellular DGAT activity was represented by the amount of triglycerides produced in the cultured HepG2 cells while the compounds (4, 8, 10, 22, 24, 25, 26, 39 and 31) of Chemical Formula 1 were assayed for inhibitory activity against DGAT by measuring the change in intracellular triglyceride production after the addition thereof.
Cells were plated at a density of 1×10^6 cell/ml per well into 24-well plates and incubated for 24 hours. Then, the medium was exchanged with FBS-free MEM and pre-treated with samples for 1 hour. Thereafter, 0.2 mCi of [^14C]acetate (Amersham) was added as a substrate to the cells, followed by incubation for 1 hour. The production of triglyceride was catalyzed by DGAT so that DGAT activity was determined by the amount of the triglyceride product, which could be measured by radioactivity. For use, the samples were dissolved in dimethyl sulfoxide (DMSO). In a control, triglycerides were synthesized using DMSO without any sample, with the production yield thereof given as 100.
The amount of the glyceride products synthesized was determined as follows. After completion of synthesis, the cells were suspended in PBS (phosphate-buffer-saline) to remove the substrate [^14C]acetate, whether unabsorbed into the cells or remaining unreacted, and total lipids, including triglycerides, were extracted twice for 30 min with 0.5 ml of an extraction solvent mixture (hexane:isopropanol=3:2, v:v). 1 ml of the extract was concentrated with nitrogen gas.
The total lipid residue thus formed was dissolved in an organic solvent mixture (chloroform:methanol=2:1) and loaded dropwise onto a thin layer chromatography plate (TLC; silica gel 60F254, 0.5 mm, Merck) using a mixture of 80:20:1 hexane:diethylether:acetic acid (v:v:v) as a developing solvent. After the separation of triglycerides (Rf value: 0.4) on TLC, the plate was brought into contact with an autoradiographic film for three hours, followed by image analysis (BAS-1500, Fuji Photo Film Co. Ltd.) to determine the [^14C] radioactivity of the triglycerides. The cells left after the extraction were suspended in 0.3 ml of a 0.1 N sodium hydroxide solution to measure the cellular protein concentration thereof.
The empirical values were obtained by dividing triglyceride radioactivity by protein level, with correction for experimental errors between test groups.

DGAT [2] = assay: Assay for inhibitory activity against DGAT ([14C]triacylglycerol formation, rat microsomal protein); type: biochemical; details: rat microsomal protein as enzyme source
Text: The derivatives of Chemical Formula 1 in accordance with the present invention are found to inhibit the enzymatic activity of DGAT at a dose-dependent manner (refer to Table 2 and FIG. 1) as measured in a test in which [^14C]triacylglycerol was quantitatively analyzed after enzymatic reaction between 1,2-diacylglycerol and [^14C]palmitoyl-CoA, with microsomal proteins from rats serving as an enzyme source (refer to Example 1).
After enzymatic reaction between two substrates 1,2-diacylglycerol (Sigma, D0138) and [^14C]palmitoyl-CoA (Amersham, CFA583) with the microsomal protein of rat serving as an enzyme source in accordance with Coleman et al, Methods Enzymol., 98-103, 1992, the resulting product [^14C] triacylglycerol was measured for radioactivity. In detail, to a reaction buffer (175 mM Tris-HCl, pH 8.0, 20 μl bovine serum albumin (10 mg/ml), 100 mM MgCl2, 30 μM [^14C] palmitoyl-CoA (0.02 μCi, Amersham) and 200 μM 1,2-dioleoyl glycerol) was added 10 μl of a solution of the samples in dimethylsulfoxide (DMSO) and then 100˜200 μl of an isolated microsomal protein, followed by reaction at 25° C. for 10 min. The reaction was terminated with 1.5 ml of a mixture of 80:20:2 2-propanol:heptane:water (v:v:v). Thereafter, the [^14C] triacylglycerol thus formed was separated. In this regard, 1 ml of heptane and 0.5 ml of distilled water were added to the reaction mixture, which was then shaken. 1 ml of the supernatant thus formed was mixed with 2 ml of an alkaline ethanol solution (ethanol:0.5 N sodium hydroxide:water=50:10:40, v:v:v), followed by shaking. After being taken, 0.65 ml of the supernatant thus formed was measured for radioactivity using an LSC (liquid scintillation counter). The inhibitory activity against DGAT was calculated according to the following Mathematical Formula 1. The inhibitory effects of the benzazole derivatives on DGAT are summarized in Table 2, below while % DGAT inhibition is plotted against doses of compound 22 and 31 in FIG. 1.
T: Cpm of a test group in which a sample was added to an enzymatic buffer,
C: Cpm of a control in which no samples were added to an enzymatic buffer,
B: Cpm of a control in which a sample was added in the absence of any enzyme source.

SPF ICR mice = assay: Acute toxicity, single oral dose of 2,000 mg/kg, mice; type: in vivo
Protocol: In addition, the compounds of the present invention were orally administered once at a dose of as high as 2,000 mg/kg into mice. In this regard, 7-week-old male SPF ICR mice (Dae Han Biolink Co. Ltd.) were acclimated to a new environment for one week and they, thus 8 weeks old, were divided into two groups of three. The test group was orally administered once with a dose of 2 g/kg of Compound 10 in a 0.5% CMC solution, while the control was administered with a 0.5% CMC (carboxymethyl cellulose) solution alone. They were monitored for death, clinical signs, change in body weight and the like for a couple of weeks. Autopsies were performed to examine the abnormality of organs.
Therefore, the compounds of the present invention exert no oral acute toxicity on mice even when administered once at a dose of up to 2,000 mg/kg.

[3] = system: ICR mice fed a high-fat diet; assay: In vivo assay for anti-obesity activity in mice fed a high-fat diet; parameters: species or system mouse; details: high-fat diet
Protocol: Also, the derivatives of Chemical Formula 1 were tested for resistance to obesity by iterative oral administration at a dose of 10 mg/kg into ICR male mice (refer to Example 3). […] When they were administered, the levels of total triglycerides, total cholesterols, and low density lipoprotein (LDL)-cholesterol in the blood recovered to almost normal levels, with a significant increase observed in the level of high density lipoprotein (HDL)-cholesterol in the blood (refer to Tables 6 and 7 and FIGS. 3 and 4).
In order to verify the anti-obesity activity of the benzaldehyde derivatives of Chemical Formula 1 in accordance with the present invention, Compounds 22 and 31 were administered repetitively into rodents as follows.
The experimental animals were 6 week old ICR mice which were purchased from Japan SLC, Inc. via Central Lab. Animal Inc. Korea. They were acclimated to a new environment for one week before use, and fed with a foodstuff commercially available from Deyts, U.S.A. They were bred in an animal lab set at a temperature of 23±3° C. and RH 50±10% under light of 150˜300 Lux for a period of 12 hours (6 a.m.˜6 p.m.) with ventilation 10-20 times/hour. All of the 12 mice used were male, and were organized into two groups of 6. The test group was orally administered once a day at 4 p.m. with 10 mg/kg of the compound (Chemical Formula 1) in the form of a solution in biological saline for 35 days while the control was administered with biological saline only. Xenical, a commercially available lipase inhibitor, was administered orally at a dose of 10 mg/kg once a day as a positive control drug.
The animals were measured for body weight every week and sacrificed on Day 35, after which blood from the heart was sampled. Abdominal fat, epididymal fat, retroperitoneal fat and the liver were excised and weighed. Blood samples were assayed for total triglyceride, total cholesterol, HDL-cholesterol and LDL-cholesterol using respective test kits, all commercially available from Asan Pharmaceutical Co. Ltd., Korea.
For evidence of anti-obesity activity, compounds 22 and 31 were orally administered at regular intervals at a dose of 10 mg/kg into ICR male mice for a predetermined period of time with the concurrent provision of conditional diets thereto. Anatomized abdomens of the animals are given in the photographs of FIG. 2.

[4] = Day 35, 10 mg/kg oral, Mean ± SD
[5] = blood, Day 35, 10 mg/kg oral, Mean ± SD

COC(=O)c1ccc2[nH]c(COc3ccc(C(C)(C)C)cc3C(C)(C)C)nc2c1 [Cpd. 8, 2-(2,4-tert-butyl-phenoxymethyl)-1H-benzoimidazole-5-carboxylic acid methyl ester]
Production Yield of Triglyceride (%) (DGAT [1]): 88.5 ± 5.8%
DGAT (% inhibition in 25 μM) (DGAT [2]): 37.36%

CN(C)C(=O)c1ccc2nc(COc3ccc(C45CC6CC(CC(C6)C4)C5)cc3)[nH]c2c1 [Cpd. 30, 2-(4-adamantan-1-yl-phenoxymethyl)-3H-benzoimidazole-5-carboxylic acid dimethylamide]
Production Yield of Triglyceride (%) (DGAT [1]): 87.2 ± 7.4%
DGAT (% inhibition in 5 μM) (DGAT [2]): 8.0%
DGAT (% inhibition in 25 μM) (DGAT [2]): 41.8%

NS(=O)(=O)c1ccc2oc(COc3ccc(Cl)cc3Cl)nc2c1 [Cpd. 10, 2-(2,4-dichloro-phenoxymethyl)-benzoxazole-5-sulfonic acid amide]
Mortality (SPF ICR mice; single oral 2 g/kg in 0.5% CMC, No. of Dead/No of Tested): 0/3
Body Weight (g) Day 0 (SPF ICR mice; single oral 2 g/kg, Day 0, Mean ± SD): 35 ± 0.5 g
Body Weight (g) Day 1 (SPF ICR mice; single oral 2 g/kg, Day 1, Mean ± SD): 37 ± 0.5 g
Body Weight (g) Day 3 (SPF ICR mice; single oral 2 g/kg, Day 3, Mean ± SD): 37 ± 0.6 g
Body Weight (g) Day 7 (SPF ICR mice; single oral 2 g/kg, Day 7, Mean ± SD): 39 ± 1.6 g
Body Weight (g) Day 14 (SPF ICR mice; single oral 2 g/kg, Day 14, Mean ± SD): 42 ± 0.8 g
Production Yield of Triglyceride (%) (DGAT [1]): 98.7 ± 6.3%
DGAT (% inhibition in 25 μM) (DGAT [2]): 17.43%

O=C(NCc1ccco1)c1ccc2oc(COc3ccc(Cl)cc3Cl)nc2c1 [Cpd. 26, 2-(2,4-dichloro-phenoxymethyl)-benzoxazole-5-carboxylic acid (furan-2-ylmethyl)-amide]
Production Yield of Triglyceride (%) (DGAT [1]): 91.5 ± 5.2%
DGAT (% inhibition in 25 μM) (DGAT [2]): 19.75%

O=C(NCc1ccco1)c1ccc2[nH]c(COc3ccc(C45CC6CC(CC(C6)C4)C5)cc3)nc2c1 [Cpd. 31, 2-(4-adamantan-1-yl-phenoxymethyl)-1H-benzoimidazole-5-carboxylic acid (furan-2-ylmethyl)-amide]
inhibition of the biosynthesis of triglycerides (DGAT [1]; 10 μM): 42.2%
Production Yield of Triglyceride (%) (DGAT [1]): 57.8 ± 5.3%
(Tissue Weight/Body Weight) × 100 Abdominal Fat + Epididymal Fat [3, 4]: 3.16 ± 0.84
(Tissue Weight/Body Weight) × 100 Liver [3, 4]: 4.48 ± 0.33
(Tissue Weight/Body Weight) × 100 Retroperitoneal Fat [3, 4]: 0.94 ± 0.24
(Tissue Weight/Body Weight) × 100 Total Fat [3, 4]: 4.1 ± 1.03
HDL-Cholesterol [3, 5]: 21.22 ± 2.19 mg/dL
LDL-Cholesterol [3, 5]: 43.62 ± 10.06 mg/dL
Total Cholesterol [3, 5]: 73.19 ± 10.97 mg/dL
Total Triglyceride [3, 5]: 41.79 ± 9.26 mg/dL
inhibition of body weight gain ([3]; 10 mg/kg oral once a day for 35 days): 73%
Body Weight (g) (Mean ± SD) Week 0 ([3]; 10 mg/kg oral once a day, Week 0): 25.08 ± 0.99 g
Body Weight (g) (Mean ± SD) Week 1 ([3]; 10 mg/kg oral once a day, Week 1): 35.1 ± 1.99 g
Body Weight (g) (Mean ± SD) Week 2 ([3]; 10 mg/kg oral once a day, Week 2): 38.93 ± 2.33 g
Body Weight (g) (Mean ± SD) Week 3 ([3]; 10 mg/kg oral once a day, Week 3): 40.75 ± 1.75 g
Body Weight (g) (Mean ± SD) Week 4 ([3]; 10 mg/kg oral once a day, Week 4): 42.31 ± 1.57 g
Body Weight (g) (Mean ± SD) Week 5 ([3]; 10 mg/kg oral once a day, Week 5): 43.22 ± 1.41 g
DGAT (% inhibition in 5 μM) (DGAT [2]): 62.5%
DGAT (% inhibition in 25 μM) (DGAT [2]): 85.4%

O=C(NCCN1CCCCC1)c1ccc2oc(COc3ccc(C45CC6CC(CC(C6)C4)C5)cc3)nc2c1 [Cpd. 24, 2-(4-adamantan-1-yl-phenoxymethyl)-benzoxazole-5-carboxylic acid (2-piperidin-1-yl-ethyl)-amide]
Production Yield of Triglyceride (%) (DGAT [1]): 78.5 ± 6.2%
DGAT (% inhibition in 25 μM) (DGAT [2]): 52.84%

O=C(NCCCN1CCOCC1)c1ccc2oc(COc3ccc(C45CC6CC(CC(C6)C4)C5)cc3)nc2c1 [Cpd. 25, 2-(4-adamantan-1-yl-phenoxymethyl)-benzoxazole-5-carboxylic acid (3-morpholin-4-yl-propyl)-amide]
Production Yield of Triglyceride (%) (DGAT [1]): 80.2 ± 7.8%
DGAT (% inhibition in 25 μM) (DGAT [2]): 54.08%

COC(=O)c1ccc2[nH]c(COc3ccc(C45CC6CC(CC(C6)C4)C5)cc3)nc2c1 [Cpd. 4, 2-(4-adamantan-1-yl-phenoxymethyl)-1H-benzoimidazole-5-carboxylic acid methyl ester]
Production Yield of Triglyceride (%) (DGAT [1]): 72.2 ± 7.5%
DGAT (% inhibition in 25 μM) (DGAT [2]): 60.43%

CN(C)CCNC(=O)c1ccc2oc(COc3ccc(C45CC6CC(CC(C6)C4)C5)cc3)nc2c1 [compound 23, 2-(4-adamantan-1-yl-phenoxymethyl)-benzoxazole-5-carboxylic acid (2-dimethylamino-ethyl)-amide]
DGAT (% inhibition in 25 μM) (DGAT [2]): 8.59%

Reference: patent US8304448B2, “Method for the treatment of metabolic disorder containing benzazole derivatives as an active ingredient” (Korea Research Institute of Bioscience and Biotechnology, priority 2006, dated 2012)
